The values below come from ChEMBL document CHEMBL4673251, “Fluorinated 2-Arylcyclopropan-1-amines - A new class of sigma receptor ligands” (Bioorg Med Chem, 2020).

Series [1] has as its target T1, Sigma non-opioid intracellular receptor 1 (Cavia porcellus, UniProt Q60492). In words: Displacement of [3H]-(+)-pentazocine from sigma1 receptor in guinea pig brain membrane incubated for 120 mins by solid scintillation counting method. It counts as cell membranes, Cell membrane.
For a further series, the species on record is Sus scrofa. Briefly: Displacement of [3H]-(+)-MK-801 from PCP binding site of NMDA receptor in pig brain cortex membranes after 120 mins by solid scintillation counting method. The settings on record: Cell membrane.
A short description of series [2]: Dissociation constant, pKa of the compound. Format: physicochemical.
Series [3] deals with T2, Sigma intracellular receptor 2 (Rattus norvegicus, UniProt Q5U3Y7).
T2 sequence (Q5U3Y7 whole entry): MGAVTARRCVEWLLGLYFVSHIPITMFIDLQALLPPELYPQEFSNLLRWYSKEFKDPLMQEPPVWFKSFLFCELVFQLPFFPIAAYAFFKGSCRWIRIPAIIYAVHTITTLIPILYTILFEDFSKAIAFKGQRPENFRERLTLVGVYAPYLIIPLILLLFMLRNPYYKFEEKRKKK
Briefly: Displacement of [3H]-di-o-tolylguanidine from Sigma 2 receptor in rat liver membrane incubated for 120 mins by solid scintillation counting method. It counts as cell membranes, Cell membrane.

The target of series [4] is T3, Sigma intracellular receptor 2 (Rattus norvegicus) (UniProt Q5U3Y7).
T3 sequence (whole entry): T2 sequence (Q5U3Y7 whole entry)
Briefly: Displacement of [3H]-di-o-tolylguanidine from Sigma 2 receptor in rat liver membrane at 1 uM incubated for 120 mins by solid scintillation counting method. The following applies: Cell membrane. It counts as cell membranes.

The target in series [5] is Sigma non-opioid intracellular receptor 1 (Cavia porcellus) (UniProt Q60492). Briefly: Displacement of [3H]-(+)-pentazocine from sigma1 receptor in guinea pig brain membrane at 1 uM incubated for 120 mins by solid scintillation counting method. Format: cell membranes. The following applies: Cell membrane.
The target in series [6] is T1, Sigma non-opioid intracellular receptor 1. In words: Displacement of [3H]-pentazocine from sigma1 receptor in guinea pig brain membrane incubated for 150 mins by scintillation counting method. It counts as cell membranes, Cell membrane.
Series [7] can be described thus: Displacement of [3H]-di-o-tolylguanidine from Sigma 2 receptor in guinea pig brain membrane incubated for 120 mins by scintillation counting method. Format: cell membranes, Cavia porcellus, Cell membrane.

Activity calls are given as the source filed them. No cut-off for these calls is given here.

Sequence of Sigma non-opioid intracellular receptor 1 (Cavia porcellus) (Q60492 whole entry): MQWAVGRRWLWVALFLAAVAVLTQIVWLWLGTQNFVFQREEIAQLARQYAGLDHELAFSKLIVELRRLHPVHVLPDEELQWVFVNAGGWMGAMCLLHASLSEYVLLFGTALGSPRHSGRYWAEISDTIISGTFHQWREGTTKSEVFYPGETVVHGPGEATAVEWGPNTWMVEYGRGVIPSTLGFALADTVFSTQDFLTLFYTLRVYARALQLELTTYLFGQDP
T1 sequence (Q60492 whole entry): as above

With `NC1CC1(F)c1ccc(S(F)(F)(F)(F)F)cc1` (trans isomer) [listing 1 of 2 here], the Ki in series [1] is 660 nM.

In the case of `NC1CC1(F)c1ccc(S(F)(F)(F)(F)F)cc1` (trans isomer) [listing 2 of 2 here], the result in the series listed under Sus scrofa was inactive.

For `NC1CC1(F)c1ccc(C(F)(F)F)cc1` (stereo in doubt; 20b) [listing 1 of 2 here], the inhibition constant (Ki) was found to be 13 nM in series [1] and 95 nM in series [3]. Moreover, the pKa in series [2] (read-out: pKa) amounted to 7.

With `COc1ccc(C2(F)CC2N)cc1` (stereo in doubt; 19b) [listing 1 of 2 here], the outcome in the series filed under Sus scrofa was inactive. This molecule yielded an inhibition in series [4] of 33%.

As for `NC1CC1(F)c1cccc(F)c1` (stereo in doubt; 27b), the result in the series filed under Sus scrofa was inactive. For the same molecule, the figures for the inhibition in series [5] and in series [4] were 0% and 16%, respectively.

For the molecule `Cc1ccc(C2(F)CC2N)cc1` (cis isomer), in the series listed under Sus scrofa, the outcome was inactive. Besides, in series [5], the inhibition turned out to be 25%. The molecule further showed a Ki in series [3] of 3100 nM.

With `N[C@@H]1C[C@H]1c1ccccc1.N[C@H]1C[C@@H]1c1ccccc1` (racemic) [TRANYLCYPROMINE], the values for the Ki in series [1] and in series [3] were 1800 nM and 6200 nM, respectively.

For the molecule `COc1cccc(C2(F)CC2N)c1` (cis isomer), in the series listed under Sus scrofa, the result was inactive. Moreover, the inhibition in series [5] was 14%.

For `COc1ccc(C2(F)CC2N)cc1OC` (stereo not given), the outcome in the series listed under Sus scrofa was inactive. In series [5], this molecule had an inhibition of 24%. The molecule further gave a Ki in series [3] of 3100 nM.

With `COc1cccc(C2(F)CC2N)c1` (trans isomer) [listing 1 of 2 here], the result in the series filed under Sus scrofa was inactive. In series [5], this molecule returned an inhibition of 25%.

For `NC1CC1(F)c1ccc(F)cc1` (stereo in doubt; 17b) [listing 1 of 2 here], the inhibition constant (Ki) in series [1] is 428 nM; in series [3], 2400 nM.

For the molecule `NC1CC1(F)c1cccc(F)c1` (trans isomer), the result in the series filed under Sus scrofa was inactive. The inhibition in series [5] amounted to 0%; in series [4] it was 31%.

For `FC1(c2ccccc2)CC1NCc1ccccc1` (stereo not given), the result in the series listed under Sus scrofa was inactive. Further, the inhibition in series [5] and in series [4] was 0% each time.

In the case of `NCC1CC1(F)c1ccccc1` (stereo not given), the Ki in series [1] stood at 429 nM. In addition, the outcome in the series listed under Sus scrofa was inactive. In series [4], this molecule yielded an inhibition of 24%.

On to `NC1CC1(F)c1ccc(C(F)(F)F)cc1` (trans isomer) [listing 1 of 2 here], for which, in the series filed under Sus scrofa, the result was inactive.

As to `NC1CC1(F)c1ccc([N+](=O)[O-])cc1` (trans isomer), in the series listed under Sus scrofa, the result was inactive. Further, the inhibition in series [5] turned out to be 13%; in series [4], 0%.

`NC1CC1(F)c1ccc(F)cc1` (trans isomer) [listing 1 of 2 here] displayed a Ki in series [3] of 1200 nM.

Take `Fc1cccc(C2(F)CC2NCc2ccccc2)c1` (trans isomer): the result in the series filed under Sus scrofa was inactive. For the same molecule, the inhibition in series [5] and in series [4] was 0% in each case.

As to `NC1CC1(F)c1ccc(F)cc1` (stereo in doubt; 17b) [listing 2 of 2 here], the result in the series filed under Sus scrofa was inactive.

On to `COc1cccc(C2(F)CC2N)c1.Cl` (cis isomer), for which the pKa in series [2] is on record as 6.89.

Turning to `COc1ccc(C2(F)CC2N)cc1` (stereo in doubt; 19b) [listing 2 of 2 here], the Ki in series [1] was 366 nM.

On to `NC1(c2ccccc2)CC1(F)c1ccccc1` (stereo in doubt; 24b) [listing 1 of 2 here], for which the Ki turned out to be 527 nM in series [1] and 7100 nM in series [3].

Take `NC1CC1(F)c1ccc(C(F)(F)F)cc1` (trans isomer) [listing 2 of 2 here]: the inhibition constant (Ki) came out at 1900 nM in series [1] and 911 nM in series [3].

With `NC1CC1(F)c1cccc([N+](=O)[O-])c1` (cis isomer), the result in the series filed under Sus scrofa was inactive. The inhibition in series [5] was found to be 13%; in series [4] it was 49%.

For `NC1CC1(F)c1ccc([N+](=O)[O-])cc1` (stereo in doubt; 25b), in the series listed under Sus scrofa, the result was inactive. Further, the inhibition came out at 1% in series [5] and 53% in series [4].

As for `NCCC1CC1(F)c1ccccc1` (stereo not given), the outcome in the series filed under Sus scrofa was inactive. Besides, the inhibition turned out to be 24% in series [5] and 5% in series [4].

Take `COc1ccc(C2(F)CC2N)cc1` (trans isomer) [listing 1 of 2 here]: the result in the series listed under Sus scrofa was inactive. Also, in series [4], the inhibition is 32%.

Turning to `NC1CC1(F)c1cccc([N+](=O)[O-])c1` (trans isomer), the outcome in the series listed under Sus scrofa was inactive. Moreover, the inhibition in series [5] came to 16%; in series [4], 18%.

For `COc1ccc(C2(F)CC2N)cc1` (trans isomer) [listing 2 of 2 here], the affinity in series [1], expressed as Ki, was 4.8 nM. The pKa in series [2] (read-out: pKa) was found to be 7.5.

For the molecule `NC1(c2ccccc2)CC1(F)c1ccccc1` (stereo in doubt; 24b) [listing 2 of 2 here], in the series listed under Sus scrofa, the outcome was inactive.

On to `NC1(c2ccccc2)CC1(F)c1ccccc1` (trans isomer) [listing 1 of 2 here], for which the Ki in series [1] came out at 399 nM; in series [3], 2300 nM.

With `NC1CC1(F)c1ccc(C(F)(F)F)cc1` (stereo in doubt; 20b) [listing 2 of 2 here], the outcome in the series filed under Sus scrofa was inactive.

Consider `NC1CC1(F)c1ccc(F)cc1` (trans isomer) [listing 2 of 2 here], for which the outcome in the series filed under Sus scrofa was inactive. The molecule further came in with an inhibition in series [5] of 27%.

Take `CNC1CC1(F)c1ccccc1` (racemic): the outcome in the series filed under Sus scrofa was inactive. The inhibition worked out at 0% in series [5] and 19% in series [4].

With `COc1cccc(C2(F)CC2N)c1` (trans isomer) [listing 2 of 2 here], the pKa in series [2] (read-out: pKa) came to 6.63.

As to `NC1(c2ccccc2)CC1(F)c1ccccc1` (trans isomer) [listing 2 of 2 here], in the series filed under Sus scrofa, the result was inactive.

Consider `COC(=O)C1(c2ccccc2)CC1CNC12CC3CC(CC(C3)C1)C2` (racemic; trans), for which the inhibition constant Ki was 226 nM in series [6] and 135 nM in series [7].

On to `CNC1CC1(F)c1ccccc1` (stereo in doubt; 11a), for which the outcome in the series filed under Sus scrofa was inactive. Further, the inhibition in series [5] and in series [4] was 0% in each case.

Turning to `NC1CC1(F)c1ccccc1` (cis isomer), the result in the series listed under Sus scrofa was inactive. In addition, the inhibition in series [5] turned out to be 30%; in series [4], 23%.

As for `COC(=O)C1(c2ccccc2)CC1CNC12CC3CC(CC(C3)C1)C2` (racemic; cis), the Ki in series [6] stood at 3 nM; in series [7] it was 23 nM.

On to `NC1CC1(F)c1ccc(Cl)cc1` (cis isomer), for which the figures for the Ki in series [1] and in series [3] were 1500 nM and 2000 nM, respectively. The outcome in the series filed under Sus scrofa was inactive.

On to `NC1CC1(F)c1ccc(S(F)(F)(F)(F)F)cc1` (cis isomer), for which, in the series listed under Sus scrofa, the result was inactive. The same molecule displayed an inhibition in series [5] of 17%.
